Laboratory results: patent US20260306476A1, “ANTIBACTERIAL COMPOUND PBT2” (priority 2022, published 2026)
“Also recorded” adds a separate entry of the source.

Tests used:
[1] = tested on: Neisseria gonorrhoeae ATCC49226; test: MIC of PBT2 and comparators against CLSI reference strain; format: cell-based
Description: 13 multidrug resistant WHO strains of Neisseria gonorrhoeae were selected to cover antimicrobial resistance phenotypes to all the antibiotics currently used.

Neisseria gonorrhoeae = test: Antibiotic resistance development test over 30 days; format: cell-based; details: 30 days of daily subculture; sub-MIC PBT2 (0.156 mg/L)
Experimental: FIG. 2: Antibiotic resistance development assay of PBT2.
Resistance development was tested over a 30 day period with PBT2 and using Kanamycin as a control.

[2] = tested on: Neisseria meningitidis MC58 (B); test: MIC of PBT2 (broth and agar)
[3] = cited from earlier work
[4] = tested on: erythromycin-resistant group A Streptococcus (GAS); details: in the absence of an antibiotic; cited from earlier work
[5] = tested on: Neisseria gonorrhoeae MS11; test: MIC of PBT2 alone (broth and agar); format: cell-based
Description: (§1) 13 multidrug resistant WHO strains of Neisseria gonorrhoeae were selected to cover antimicrobial resistance phenotypes to all the antibiotics currently used. MS11 is a laboratory strain and ATCC49226 is a CLSI standard MIC control strain (CLSI. 2022. Performance Standards for Antimicrobial Susceptibility Testing, 32nd Edition. Clinical and Laboratory Standards Institute which is hereby incorporated by reference in its entirety). The MICs (minimum inhibitory concentration) of PBT2 alone in the absence of zinc or a further antimicrobial agent against these Neisseria gonorrhoea strains are summarised in Table 1.

[6] = tested on: Neisseria gonorrhoeae WHO L; test: MIC of PBT2 alone (broth and agar); format: cell-based
Description: as §1

[7] = tested on: Neisseria gonorrhoeae WHO P; test: MIC of PBT2 alone (broth and agar); format: cell-based
Description: as §1

[8] = tested on: Neisseria gonorrhoeae WHO C; test: MIC of PBT2 alone (broth and agar); format: cell-based
Description: as §1

[9] = tested on: Neisseria gonorrhoeae WHO K; test: MIC of PBT2 alone (broth and agar); format: cell-based
Description: as §1

[10] = tested on: Neisseria gonorrhoeae WHO N; test: MIC of PBT2 alone (broth and agar); format: cell-based
Description: as §1

[11] = tested on: Neisseria gonorrhoeae WHO M; test: MIC of PBT2 alone (broth and agar); format: cell-based
Description: as §1

[12] = tested on: Neisseria gonorrhoeae WHO O; test: MIC of PBT2 alone (broth and agar); format: cell-based
Description: as §1

[13] = tested on: Neisseria gonorrhoeae WHO X; test: MIC of PBT2 alone (broth and agar); format: cell-based
Description: as §1

[14] = tested on: Neisseria gonorrhoeae WHO Z; test: MIC of PBT2 alone (broth and agar); format: cell-based
Description: as §1

[15] = tested on: Neisseria gonorrhoeae WHO E; test: MIC of PBT2 alone (broth and agar); format: cell-based
Description: as §1

[16] = tested on: Neisseria gonorrhoeae WHO F; test: MIC of PBT2 alone (broth and agar); format: cell-based
Description: as §1

[17] = tested on: Neisseria gonorrhoeae WHO Y; test: MIC of PBT2 alone (broth and agar); format: cell-based
Description: as §1

[18] = tested on: Neisseria gonorrhoeae WHO G; test: MIC of PBT2 alone (broth and agar); format: cell-based
Description: as §1

For `CN(C)Cc1ccc2c(Cl)cc(Cl)c(O)c2n1` [PBT2, 5,7-dichloro-2-[(dimethylamino)methyl]quinolin-8-ol], the MIC ([1]; ATCC49226, ATCC49226, agar) was 0.625 µg/mL, the MIC ([1]; ATCC49226, ATCC49226, broth) was 0.312 µg/mL and the antibiotic resistance development (Neisseria gonorrhoeae) was “No antibiotic resistance was observed; also recorded: no visible development of resistance”. The MIC ([2]; agar) was 0.039 µg/mL, the MIC ([2]; broth) was 0.156 µg/mL and the safety and tolerability ([3]; 250 mg daily for up to 12 months, without serious side effects or withdrawal symptoms) was “safe and well-tolerated, without serious side effects or withdrawal symptoms”. The safety ([3]; data from phase II clinical trials) was “safe-for-human-use”, the antibacterial activity [4] was “neither PBT2 nor zinc alone displayed antibacterial activity which would be suitable to treat an infection” and the MIC ([5]; agar) was 0.625 µg/mL. It also gave an MIC ([5]; broth) of 0.156 µg/mL, an MIC ([6]; agar) of 0.625 µg/mL and an MIC ([6]; broth) of 0.156 µg/mL. It also gave an MIC ([7]; agar) of 0.625 µg/mL, an MIC ([7]; broth) of 0.312 µg/mL and an MIC ([8]; agar) of 0.625 µg/mL. For the same compound, the MIC ([8]; broth) was 0.312 µg/mL, the MIC ([9]; agar) was 0.625 µg/mL and the MIC ([9]; broth) was 0.312 µg/mL. For the same compound, the MIC ([10]; agar) was 0.625 µg/mL, the MIC ([10]; broth) was 0.156 µg/mL and the MIC ([11]; agar) was 0.625 µg/mL. For the same compound, the MIC ([11]; broth) was 0.312 µg/mL, the MIC ([12]; agar) was 0.625 µg/mL and the MIC ([12]; broth) was 0.156 µg/mL. The MIC ([13]; agar) was 0.625 µg/mL, the MIC ([13]; broth) was 0.156 µg/mL and the MIC ([14]; MIC concentration used in time-kill assay) was 0.313 µg/mL. For the same compound, the MIC ([14]; agar) was 0.625 µg/mL, the MIC ([14]; broth) was 0.312 µg/mL and the MIC ([15]; agar) was 0.312 µg/mL. For the same compound, the MIC ([15]; broth) was 0.156 µg/mL, the MIC ([16]; agar) was 0.312 µg/mL and the MIC ([16]; broth) was 0.156 µg/mL. The MIC ([17]; agar) was 0.625 µg/mL, the MIC ([17]; broth) was 0.156 µg/mL and the MIC ([18]; agar) was 0.312 µg/mL. It also gave an MIC ([18]; broth) of 0.156 µg/mL.
